Experimental data taken from the NIST ThermoML archive (doi:10.1021/je900703f).

Details: Liquid

FC(F)=C(F)C(F)(F)F [hexafluoropropene]
Details	vapor or sublimation pressure [kPa]
263.17 K	224.5
273.16 K	324.4
293.12 K	641
313.11 K	1099.4
333.11 K	1788.2
353.14 K	2778.2
